Test results as given in patent publication US5270308A, “1,3-benzoxazine derivatives, their production and use” (Takeda Chemical Industries, Ltd., priority 1990, dated 1993).

Tests used:
[1] = system: Rat Aorta Sample (constriction by TEA and Ba); test: Vasorelaxation activity in rat aorta sample: effect on constriction caused by tetraethylammonium chloride (TEA) and barium chloride (Ba); type: cell-based, Male Wister rats; conditions: TEA (30 to 45 mM) and Ba (0.3 mM), rat aorta ring, read-out: constriction inhibitory ratio (%)
Procedure: (§1) Vasorelaxation Activity in Rat Aorta Sample
Effect on Relaxation Caused by Tetraethylammonium Chloride (TEA) and Barium Chloride (Ba)
Method: Male Wister rats (10 to 13 weeks old) were used for the experiment. After dehematization, the aorta was excised and a ring sample (5 mm) was prepared. The sample was suspended in a bath filled with oxygenated (95% O2 -5% CO2) Krebs solution (36° C.). The ring sample was fixed at one end and the other end was connected to a transducer (Nippon Koden, Japan) for recording tension and the tension was measured. After a stabilization period of 1 hour, TEA (30 to 45 mM) and Ba (0.3 mM) were added to the bath to cause vasoconstriction. After the constriction has reached a steady state (after about 15 minutes), a test compound was added to the bath and its relaxation activity was measured.
Result: The results are shown in Table 3 in terms of the inhibitory ratio of the test compound.

[2] = system: spontaneously hypertensive rat; test: Hypotensive activity in spontaneously hypertensive rats; type: in vivo; conditions: po, orally, conscious spontaneously hypertensive rat, male, 20 to 23 weeks old, read-out: maximum effect (%) (mean ratio of maximum decrease in the blood pressure)
Procedure: Hypotensive Activity in Rats
Method: A spontaneously hypertensive rat (male, 20 to 23 weeks old) was operated in advance for retaining a cannula for blood pressure measurement in the left femoral artery. The experiment was carried out for the rat when waking on the next day after the operation. The cannula was connected with a transducer (Specrtramed) upon the experiment and the blood pressure was measured (Nippon Koden, Japan). A test compound was suspended in gum arabic and the suspension was administered orally.

[3] = system: Rat Aorta Sample (constriction by KCl); test: Vasorelaxation activity in rat aorta sample: effect on constriction caused by potassium chloride (KCl); type: cell-based, Male Wister rats; conditions: KCl (80 mM), rat aorta ring, read-out: constriction inhibitory ratio (%)
Procedure: as §1
Effect on Relaxation Caused by Potassium Chloride (KCl)
Method: According to the same manner as that described in Experiment 1, this experiment was carried out except that KCl (80 mM) was used instead of TEA and Ba.
Result: The results are shown in Table 4 in terms of the inhibitory ratio of the test compound.

| Compound | inhibition at 3 µM [1] [%] | inhibition at 10 µM [1] [%] | inhibition in vivo at 1 mg/kg [2] [%] | inhibition at 3 µM [3] [%] | inhibition at 10 µM [3] [%] | inhibition at 1 µM [1] [%] | inhibition at 1 µM [3] [%] |
| --- | --- | --- | --- | --- | --- | --- | --- |
| CC1(C)N=C(c2cccc[n+]2[O-])c2cc(C#N)ccc2O1 [Compound 20, 2-(6-cyano-2,2-dimethyl-2H-1,3-benzoxazin-4-yl)pyridine N-oxide] | 35 | 81 | 39 | -4 | -2 | – | – |
| CC1(C)N=C(c2cccc[n+]2[O-])c2cc(Br)ccc2O1 [Compound 23, 2-(6-bromo-2,2-dimethyl-2H-1,3-benzoxazin-4-yl)pyridine N-oxide] | 82 | 100 | 32 | 1 | 4 | 19 | -1 |
| CC1(C)N=C(c2cccc[n+]2[O-])c2cc(Cl)ccc2O1 [Compound 24, 2-(6-chloro-2,2-dimethyl-2H-1,3-benzoxazin-4-yl)pyridine N-oxide] | 76 | 94 | 38 | – | -11 | – | – |
| CC1(C)N=C(c2cccc[n+]2[O-])c2cc([N+](=O)[O-])ccc2O1 [Compound 29, 2-(2,2-dimethyl-6-nitro-2H-1,3-benzoxazin-4-yl)pyridine N-oxide] | – | – | 61 | – | – | 74 | -8 |
| CCOc1ccc[n+]([O-])c1C1=NC(C)(C)Oc2ccc(C#N)cc21 [Compound 38, 2-(6-cyano-2,2-dimethyl-2H-1,3-benzoxazin-4-yl)-3-ethoxypyridine N-oxide] | – | – | 58 | – | – | – | – |
| Cc1cc2c(cc1Br)C(c1cccc[n+]1[O-])=NC(C)(C)O2 [Compound 47, 2-(6-bromo-2,2,7-trimethyl-2H-1,3-benzoxazin-4-yl)pyridine N-oxide] | 100 | – | – | 2 | – | 72 | -1 |
| Cc1cc2c(cc1[N+](=O)[O-])C(c1cccc[n+]1[O-])=NC(C)(C)O2 [Compound 49, 2-(2,2,7-trimethyl-6-nitro-2H-1,3-benzoxazin-4-yl)pyridine N-oxide] | 77 | 86 | – | -6 | -3 | 28 | -7 |
| C#Cc1ccc2c(c1)C(c1cccc[n+]1[O-])=NC(C)(C)O2 [Compound 53, 2-(6-ethynyl-2,2-dimethyl-2H-1,3-benzoxazin-4-yl)pyridine N-oxide] | – | 89 | – | – | -4 | – | – |
| CC(=O)c1ccc2c(c1)C(c1cccc[n+]1[O-])=NC(C)(C)O2 [Compound 56, 2-(6-acetyl-2,2-dimethyl-2H-1,3-benzoxazin-4-yl)pyridine N-oxide] | – | – | 22 | – | – | – | – |
| Cc1cc2c(cc1C#N)C(c1cccc[n+]1[O-])=NC(C)(C)O2 [Compound 65, 2-(6-cyano-2,2,7-trimethyl-2H-1,3-benzoxazin-4-yl)pyridine N-oxide] | 48 | 74 | – | -2 | 0 | – | – |
| CC1(C)N=C(c2cccc[n+]2[O-])c2cc(OC(F)(F)F)ccc2O1 [Compound 69, 2-(6-trifluoromethoxy-2,2-dimethyl-2H-1,3-benzoxazin-4-yl)pyridine N-oxide] | 45 | 81 | 44 | -1 | 2 | – | – |
| CC1(C)N=C(c2cccc[n+]2[O-])c2cc(C(F)(F)F)ccc2O1 [Compound 75, 2-(6-trifluoromethyl-2,2-dimethyl-2H-1,3-benzoxazin-4-yl)pyridine N-oxide] | 91 | 100 | 54 | 1 | 2 | 38 | -2 |
| CC1(C)N=C(c2cccc[n+]2[O-])c2cc(C(F)(F)C(F)(F)F)ccc2O1 [Compound 77, 2-(6-pentafluoroethyl-2,2-dimethyl-2H-1,3-benzoxazin-4-yl)pyridine N-oxide] | 45 | 98 | 25 | 3 | 10 | – | – |
| CC1(C)N=C(c2cccc[n+]2[O-])c2cc(Cl)c(Cl)cc2O1 [Compound 79, 2-(6,7-dichloro-2,2-dimethyl-2H-1,3-benzoxazin-4-yl)pyridine N-oxide] | 57 | 65 | 36 | -1 | 3 | 24 | -5 |
| CC1(C)N=C(c2cccc[n+]2[O-])c2cc(Br)c(Cl)cc2O1 [Compound 89, 2-(6-bromo-7-chloro-2,2-dimethyl-2H-1,3-benzoxazin-4-yl)pyridine 1-oxide] | 67 | 71 | 33 | -8 | -3 | 59 | -11 |
| CC1(C)N=C(c2cccc[n+]2[O-])c2cc(C#N)c(Cl)cc2O1 [Compound 91, 2-(7-chloro-6-cyano-2,2-dimethyl-2H-1,3-benzoxazin-4-yl)pyridine N-oxide] | – | – | 39 | – | – | – | – |
| CC1(C)N=C(c2cccc[n+]2[O-])c2cc(Br)c(Br)cc2O1 [Compound 93, 2-(6,7-dibromo-2,2-dimethyl-2H-1,3-benzoxazin-4-yl)pyridine N-oxide] | 71 | – | 22 | – | – | 52 | – |
| CC1(C)N=C(c2cccc[n+]2[O-])c2cc(Br)c(F)cc2O1 [Compound 95, 2-(6-bromo-7-fluoro-2,2-dimethyl-2H-1,3-benzoxazin-4-yl)pyridine N-oxide] | – | – | 55 | – | – | – | – |
| CC1(C)N=C(c2cccnc2)c2cc(Br)ccc2O1 [Compound 98] | – | – | – | -6 | – | – | -4 |
| CCOc1ccc[n+]([O-])c1C1=NC(C)(C)Oc2cc(Cl)c(Br)cc21 [Compound 117, 2-(6-bromo-7-chloro-2,2-dimethyl-2H-1,3-benzoxazin-4-yl)-3-ethoxypyridine N-oxide] | – | – | 54 | – | – | – | – |
| COc1ccc[n+]([O-])c1C1=NC(C)(C)Oc2ccc(C(F)(F)F)cc21 [Compound 118, 2-(6-trifluoromethyl-2,2-dimethyl-2H-1,3-benzoxazin-4-yl)-3-methoxypyridineN-oxide] | – | – | 43 | – | – | – | – |
| CCOc1ccc[n+]([O-])c1C1=NC(C)(C)Oc2ccc(Br)cc21 [Compound 119, 2-(6-bromo-2,2-dimethyl-2H-1,3-benzoxazin-4-yl)-3-ethoxypyridine N-oxide] | – | – | 61 | – | – | – | – |
| CCOc1ccc[n+]([O-])c1C1=NC(C)(C)Oc2ccc(C(F)(F)F)cc21 [Compound 124, 3-ethoxy-2-(6-trifluoromethyl-2,2-dimethyl-2H-1,3-benzoxazin-4-yl)pyridine N-oxide] | – | – | 48 | – | – | – | – |
| COc1ccc[n+]([O-])c1C1=NC(C)(C)Oc2ccc(C#N)cc21 [Compound 125, 2-(6-cyano-2,2-dimethyl-2H-1,3-benzoxazin-4-yl)-3-methoxypyridine N-oxide] | – | – | 23 | – | – | – | – |
| COc1ccc[n+]([O-])c1C1=NC(C)(C)Oc2cc(Cl)c(Br)cc21 [Compound 126, 2-(6-bromo-7-chloro-2,2-dimethyl-2H-1,3-benzoxazin-4-yl)-3-methoxypyridine N-oxide] | – | – | 49 | – | – | – | – |
| COc1ccc[n+]([O-])c1C1=NC(C)(C)Oc2ccc(Br)cc21 [Compound 129, 2-(6-bromo-2,2-dimethyl-2H-1,3-benzoxazin-4-yl)-3-methoxypyridine N-oxide] | – | – | 55 | – | – | – | – |
| CC1(C)N=C(c2c(O)ccc[n+]2[O-])c2cc(Br)ccc2O1 [Compound 143, 2-(6-bromo-2,2-dimethyl-2H-1,3-benzoxadin-4-yl)-3-hydroxypyridine N-oxide] | – | – | 54 | – | – | – | – |
